Experimental data published in patent publication US9844554B2 (Neurogastrx, Inc., priority 2014, dated 2017).

Legend:
[1] = tested on: cardiac action potentials in dogs; assay: Canine cardiac action potentials by electrocardiography and telemetry; format: in vivo, dog; conditions: for QTc intervals: oral gavage, 1-6 hours post-dose, vs vehicle
Text: Surgical Implantation of the Telemetry Device and ECG Leads. Anesthesia is introduced to dogs. Balanced gaseous anesthesia is used throughout the surgical procedure. Once anesthetized, animals are shaved and surgically scrubbed, encompassing surgical sites of the right inguinal area, chest and right lateral abdomen. Throughout the surgical procedure, animals are monitored for continuous assessment of vital signs. An incision is made along the right medial thigh and the femoral artery exposed by blunt dissection. Another incision is made in the lateral lumbar area cranial to the iliac crest for a tunneling needle to be passed subcutaneously from the incision on the medial thigh to the lumbar incision. A blood pressure catheter is passed through the needle from the lumbar incision and the needle removed. The femoral artery is ligated distally and incised to insert a catheter that is advanced until the tip resided in the femoral artery/abdominal aorta. The catheter is then secured by ligation. The incision in the lumbar area is enlarged and a subcutaneous pocket created in the left dorsal lumbar area to hold the transmitter body. The transmitter (e.g., Data Sciences International, St Paul, Minn., USA) is inserted into the subcutaneous pocket and secured body. Electrocardiography (ECG) leads are positioned. The incision is closed. Postoperative recovery lasts, e.g., about 2 weeks during which supplemental analgesics/antibiotics are administered as needed. Once the postoperative recovery period is complete, the animal is examined for study acceptability by the staff veterinarian and the implanted transmitter signal verified.
Study Design. […] ECGs, heart rate and arterial blood pressure data are recorded 1 hour prior to and then continuously for at least 6 hours following compound and/or vehicle administration. A blood sample for determination of compound plasma concentrations is collected from all subjects at approximately 6 h post-dose.
ECG Analysis. An ECG waveform morphology assessment for the entire monitoring period is completed for each dog by a safety pharmacologist or veterinarian cardiologist. Standard ECG intervals (PR, RR, QRS and QT) are automatically measured by the data acquisition system and reported as, e.g., 10 min averages. The signals are collected with Data Sciences International Systems hardware. PR and QT manual overreads are conducted as appropriate. The manual measurements are completed from 50 mm s^−1 tracings at 30 min intervals. A mean of the three waveforms per time point are reported. QT intervals are corrected for heart rate (QTc) values by, e.g., using the formula by Funck-Bretano and Jaillon (1993).
Statistical Analysis. […] Dose-level averages (and accompanying standard deviation (s.d.) of these baseline-adjusted 10 min averages are calculated across study animals. ANOVA (e.g., repeated measures ANOVA) are applied to these baseline-adjusted averages. Pairwise t-tests are applied within the ANOVA to identify the presence of significant differences of the dose levels relative to vehicle. These t-tests are performed at a 0.05/2=0.025 significance level, so that the overall error rate across the comparisons in a given interval are not higher than 0.05. ECG interval data (reported at 30 min intervals) are analyzed using, e.g., repeated-measures ANOVA techniques similar to the systemic blood pressure and heart rate data described above.

hERG channel = hERG channel (Homo sapiens, UniProt Q12809); assay: hERG voltage clamp assay in hERG-expressing cultured cells; format: cell-based; conditions: approximate, from voltage clamp data, read-out: concentration necessary to inhibit 50% of the tail currents mediated by hERG channels
α1 = assay: Radioligand binding affinity, α1
D3 = D3 (Homo sapiens, UniProt P35462); assay: Radioligand binding affinity, D3
5HT2 = assay: Radioligand binding affinity, 5HT2
[2] = tested on: gastric motility in canines; assay: Antral manometry (gastric motility) in canines; format: in vivo, canine (hound dogs)
Procedure: Two healthy female hound dogs (24-28 kg) were involved in this study. Animals were fed an ad libitum chow diet (LabDiet®). After an overnight fast, the dogs were anesthetized with Pentothal (sodium thiopental, 11 mg/kg IV; Abbott Laboratories, North Chicago, Ill.) and maintained on 2-4% isoflurane (Abbott Laboratories) in oxygen (1 L/min) carrier gases delivered from a ventilator after endotracheal intubation. A cannula was placed in the jejunum 20 cm distal to the pylorus for the assessment of antral motility. Dogs were allowed to recover in their individual cages for 2 weeks. All experiments were performed after the dogs were completely recovered from the surgical procedure. The study was performed according to the National Institutes of Health Guidelines on the use of laboratory animals and approved by the Animal Care and Use Committee of the University of Texas Medical Branch at Galveston, Tex. To investigate the effect of the drugs on antral manometry, the study of each drug dose was done on three randomized sessions on separate days following the consumption of one can of solid dog food: 1) a Control session: In which animals received the vehicle only; 2) Dose I session: in which the lower dose of the drug was used; and 3) Dose II session: in which the higher dose of the drug was used (please refer to table for drug doses). Drug administration was performed according to Table 4, below. Antral manometry was performed as follows. Following an overnight fast, an intraluminal water-perfused manometry catheter was inserted into the antrum through the jejunal cannula. Antral manometry recording was initiated after the consumption of one can of solid food and continued for 3 hours. The catheter contained 3 manometric sensors at a 1 cm interval. Dogs were given 10 minutes of accommodation, prior to the start of the recording. For data analysis, motility index (MI), defined as the integrated area (area under curve—AUC) between baseline and contractions per hour, was calculated. For statistical analysis, the Student's t-test was used for assessment of individual differences between groups (high dose, low dose of each drug) compared to control—Microsoft®Excel 2002). All values are expressed as mean±SEM. Significance was considered when p value was ≦0.05.

[3] = tested on: gastric emptying in Sprague-Dawley rats; assay: Solid gastric emptying in rodents; format: in vivo, rat
Procedure: The animals received a standard laboratory rat chow and tap water ad libitum. The rats were around 400 g at 14 weeks age when used in gastric emptying study. Drugs: S-Carbidopa was purchased from Sigma (#: C1335). Stock solution of S-Carbidopa was prepared at 5 mg/ml using DMSO as solvent. 80 μl stock solution was further diluted into 1 ml distilled water to make 0.4 mg/ml. The effect of S-Carbidopa (1 mg/kg) on solid gastric emptying was studied. Procedures: Male SD rats were involved in this study. Rats were fasted in cages with metal wired mesh for 24 hours with free access to water; S-carbidopa (1 mg/kg) was administered to the rats by oral gavage. Control rats were not administered S-carbidopa. 15 minutes following administration, rats were given access to 2 g of rat chow pellets for ten minutes. All rats completely ingested the chow within the 10 minute time frame. Rats were sacrificed by sodium pentobarbital (100 mg/kg) overdose 90 min after feeding. The stomach was surgically isolated and removed. Gastric contents were recovered from the stomach, air dried for 48 hours and then weighed. Solid gastric emptying was calculated according to the following formula: Gastric emptying (%)=[1−(dried gastric content in g)/2 g]×100. All values are expressed as mean±SEM.

Sequence of hERG channel (Q12809 whole entry): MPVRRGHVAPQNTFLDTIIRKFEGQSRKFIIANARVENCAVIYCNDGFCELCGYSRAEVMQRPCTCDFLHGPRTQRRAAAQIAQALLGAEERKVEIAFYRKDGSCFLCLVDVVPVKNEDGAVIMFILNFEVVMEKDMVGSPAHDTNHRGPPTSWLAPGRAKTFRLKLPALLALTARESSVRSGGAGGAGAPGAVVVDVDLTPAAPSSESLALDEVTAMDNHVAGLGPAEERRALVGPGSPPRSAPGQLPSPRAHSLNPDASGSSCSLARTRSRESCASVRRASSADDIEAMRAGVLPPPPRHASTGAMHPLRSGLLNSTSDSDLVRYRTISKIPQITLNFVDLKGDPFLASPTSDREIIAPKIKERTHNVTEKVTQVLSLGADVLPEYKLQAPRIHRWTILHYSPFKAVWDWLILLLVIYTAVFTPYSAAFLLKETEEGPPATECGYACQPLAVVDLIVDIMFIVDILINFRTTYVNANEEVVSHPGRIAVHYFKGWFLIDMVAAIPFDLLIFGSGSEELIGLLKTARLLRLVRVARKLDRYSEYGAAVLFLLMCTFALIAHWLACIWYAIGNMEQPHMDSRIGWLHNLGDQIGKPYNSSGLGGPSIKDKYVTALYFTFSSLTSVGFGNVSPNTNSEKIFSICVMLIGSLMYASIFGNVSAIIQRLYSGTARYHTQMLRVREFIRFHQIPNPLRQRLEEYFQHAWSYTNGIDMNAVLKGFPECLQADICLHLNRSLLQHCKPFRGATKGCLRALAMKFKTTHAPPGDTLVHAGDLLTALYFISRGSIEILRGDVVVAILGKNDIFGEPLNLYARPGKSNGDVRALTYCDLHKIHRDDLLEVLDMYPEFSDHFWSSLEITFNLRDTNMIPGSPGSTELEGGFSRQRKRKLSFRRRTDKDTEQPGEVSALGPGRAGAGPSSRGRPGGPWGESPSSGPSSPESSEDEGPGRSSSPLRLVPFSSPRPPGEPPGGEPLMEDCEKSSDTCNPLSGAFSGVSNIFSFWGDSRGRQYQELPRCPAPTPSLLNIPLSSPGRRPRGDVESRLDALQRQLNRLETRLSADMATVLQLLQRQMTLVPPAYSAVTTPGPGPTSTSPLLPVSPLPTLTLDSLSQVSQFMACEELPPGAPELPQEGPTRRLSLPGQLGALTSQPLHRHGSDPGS
Sequence of D3 (P35462 whole entry): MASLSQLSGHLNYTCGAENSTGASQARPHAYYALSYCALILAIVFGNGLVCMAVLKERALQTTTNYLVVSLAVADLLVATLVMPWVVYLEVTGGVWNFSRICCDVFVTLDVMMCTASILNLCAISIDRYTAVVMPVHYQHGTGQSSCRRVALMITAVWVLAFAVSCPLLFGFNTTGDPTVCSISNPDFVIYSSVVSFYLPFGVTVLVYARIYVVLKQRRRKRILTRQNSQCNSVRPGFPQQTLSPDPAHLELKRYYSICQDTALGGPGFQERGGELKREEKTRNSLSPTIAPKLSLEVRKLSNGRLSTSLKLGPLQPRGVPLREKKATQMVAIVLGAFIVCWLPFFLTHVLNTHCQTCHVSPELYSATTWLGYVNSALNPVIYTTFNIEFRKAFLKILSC

Row | SMILES | QTc intervals [1] | IC50 (hERG channel) | Ki (α1) | Ki (5HT2) | motor dysfunction [2] | also measured
1 | CS(=O)(=O)c1ccc2c(c1)N(CCCN1CCC(C(=O)O)CC1)c1ccccc1S2 [Metopimazine-Acid, metopimazine acid] | no significant increases in QTc intervals | > 10 µM | 210 nM | 370 nM | – | Ki (D3): > 100 nM
2 | Cl.NCCc1ccc(O)c(O)c1 [dopamine hydrochloride, Dopamine hydrochloride] | – | – | – | – | – | motility index (MI), antral manometry ([2]; 50 mg/canine IV immediately before meal, all channels, p=0.06): decreased MI
3 | CS(=O)(=O)c1ccc2c(c1)N(CCCN1CCC(C(N)=O)CC1)c1ccccc1S2 [Metopimazine, 1-[3-[2-(methylsulfonyl)-10H-phenothiazin-10-yl]propyl]-piperidine-4-carboxamide] | no significant increases in QTc intervals | ~3 µM | 1.9 nM | 15 nM | no motor dysfunction was observed | overall increase in gastric emptying as compared to vehicle control ([3]; rats, pooling the 3 mg/kg and 10 mg/kg doses): about 20%
4 | CN(CCOc1ccc(NS(C)(=O)=O)cc1)CCc1ccc(NS(C)(=O)=O)cc1 [dofetilide] | QTc intervals are increased | – | – | – | – | incidence of ECG abnormalities ([1]; 0.3 mg/kg oral gavage): increases the incidence of premature ventricular contractions, T-wave abnormalities, and right bundle branch block
5 | C[C@@](Cc1ccc(O)c(O)c1)(NN)C(=O)O [S-Carbidopa, (25)-3-(3,4-dihydroxyphenyl)-2-hydrazino-2-methylpropanoic acid] | no significant increases in QTc intervals | – | – | – | no motor dysfunction was observed | motor dysfunction ([3]; rats administered carbidopa): no motor dysfunction was observed; solid gastric emptying compared to control rats ([3]; rats, initial results): improves solid gastric emptying; motility index (MI), antral manometry ([2]; 1 mg/kg IV 15 min prior to meal, all three channels, p=0.05): robustly increased MI
